From patent US20140303164A1, “THERAPEUTIC COMPOUNDS” (Gilead Sciences, Inc., priority 2013, published 2014)

What was measured:
[1] = Test B: Cytotoxicity Assay; assay type: cell-based; details: human, uninfected MT-4 cells, same protocol as Test A
Summary of the method: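 Uninfected MT-4 cells (2000 per well) incubated with diluted compound at 37° C. for 5 days, following the antiviral protocol without HIV-IIIb.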

HIV-IIIb = assay: Test A: Antiviral Assay in MT4 Cells; assay type: cell-based, HIV-1; details: Human immunodeficiency virus 1, IIIB, MT4, 120 h; for inhibition at 0.2 µM: read-out: % inhibition at 0.2 μM; for inhibition at 2 µM: read-out: % inhibition at 2 μM
Description: Test A: Antiviral Assay in MT4 Cells
MT-4 cells were next mixed with HIV-IIIb at an m.o.i of 0.003 for 1 hour, after which time 35 μL of virus/cell mixture (2000 cells) was immediately added to each well containing 40 μL of diluted compound. The plates were then incubated at 37° C. for 5 days. […] Cell lysis was carried out by incubating at room temperature for 10 min and then chemiluminescence was read.

SMILES	CC50 at 5 days [1] [µM]	inhibition at 0.2 µM (HIV-IIIb) [%]	inhibition at 2 µM (HIV-IIIb) [%]
Cn1nc(N)c2c(Cl)ccc(-c3ccc(C#CC(C)(C)O)nc3[C@H](Cc3cc(F)cc(F)c3)NC(=O)Cn3nc(C(F)(F)F)c4c3C(F)(F)[C@@H]3C[C@H]43)c21 [Compound 55C, N—((S)-1-(3-(3-amino-4-chloro-1-methyl-1H-indazol-7-yl)-6-(3-hydroxy-3-methylbut-1-yn-1-yl)pyridin-2-yl)-2-(3,5-difluorophenyl)ethyl)-2-((3b-S,4aR)-5,5-difluoro-3-(trifluoromethyl)-3b,4,4a,5-tetrahydro-1H-cyclopropa[3,4]cyclopenta[1,2-c]pyrazol-1-yl)acetamide]	9.56	92	92
Cn1nccc1-c1ccc(-c2ccc(Cl)c3c(NS(C)(=O)=O)nn(C)c23)c([C@H](Cc2cc(F)cc(F)c2)NC(=O)Cn2nc(C(F)(F)F)c3c2C(F)(F)[C@@H]2C[C@H]32)n1 [Compound 175, N—((S)-1-(3-(4-chloro-1-methyl-3-(methylsulfonamido)-1H-indazol-7-yl)-6-(1-methyl-1H-pyrazol-5-yl)pyridin-2-yl)-2-(3,5-difluorophenyl)ethyl)-2-((3b-S,4aR)-5,5-difluoro-3-(trifluoromethyl)-3b,4,4a,5-tetrahydro-1H-cyclopropa[3,4]cyclopenta[1,2-c]pyrazol-1-yl)acetamide]	> 46.1	95	95
Cn1nc(NS(C)(=O)=O)c2c(Cl)ccc(-c3ccc(C#CC(C)(C)C)nc3[C@H](Cc3cc(F)cc(F)c3)NC(=O)Cn3nc(C(F)F)c4c3C(F)(F)[C@@H]3C[C@H]43)c21 [Compound 131E, N—((S)-1-(3-(4-chloro-1-methyl-3-(methylsulfonamido)-1H-indazol-7-yl)-6-(3,3-dimethylbut-1-yn-1-yl)pyridin-2-yl)-2-(3,5-difluorophenyl)ethyl)-2-((3b-S,4aR)-3-(difluoromethyl)-5,5-difluoro-3b,4,4a,5-tetrahydro-1H-cyclopropa[3,4]cyclopenta[1,2-c]pyrazol-1-yl)acetamide]	22.5	95	96
CC(C)(O)C#Cc1ccc(-c2cc(C(=O)NC3COC3)c3nccn3c2)c([C@H](Cc2cc(F)cc(F)c2)NC(=O)Cn2nc(C(F)(F)F)c3c2C(F)(F)[C@@H]2C[C@H]32)n1 [Compound 35D, 6-(2-((S)-1-(2-((3bS,4aR)-5,5-difluoro-3-(trifluoromethyl)-3b,4,4a,5-tetrahydro-1H-cyclopropa[3,4]cyclopenta[1,2-c]pyrazol-1-yl)acetamido)-2-(3,5-difluorophenyl)ethyl)-6-(3-hydroxy-3-methylbut-1-yn-1-yl)pyridin-3-yl)-N-(oxetan-3-yl)imidazo[1,2-a]pyridine-8-carboxamide]	14.2	28	91
CCN1CCN(CC(=O)N[C@@H](Cc2cc(F)cc(F)c2)c2nc(C#CC(C)(C)O)ccc2-c2ccc(Cl)c3c(NS(C)(=O)=O)nn(C)c23)CC1 [Compound 197, (S)—N-(1-(3-(4 chloro-1-methyl-3-(methylsulfonamido)-1H-indazol-7-yl)-6-(3-hydroxy-3-methylbut-1-yn-1-yl)pyridin-2-yl)-2-(3,5-difluorophenyl)ethyl)-2-(4-ethylpiperazin-1-yl)acetamide]	15.4	–	63
Cn1nc(NS(C)(=O)=O)c2c(Cl)ccc(-c3ccc(C#CC(C)(C)O)nc3[C@H](Cc3cc(F)cc(F)c3)NC(=O)Cn3nc(C(F)(F)F)c4c3CCCC4)c21 [Compound 124, (S)—N-(1-(3-(4 chloro-1-methyl-3-(methylsulfonamido)-1H-indazol-7-yl)-6-(3-hydroxy-3-methylbut-1-yn-1-yl)pyridin-2-yl)-2-(3,5-difluorophenyl)ethyl)-2-(3-(trifluoromethyl)-4,5,6,7-tetrahydro-1H-indazol-1-yl)acetamide]	9.14	97	97
CNCC(=O)Nc1nn(C)c2c(-c3ccc(C#CC(C)(C)O)nc3[C@H](Cc3cc(F)cc(F)c3)NC(=O)Cn3nc(C(F)F)c4c3C(F)(F)[C@@H]3C[C@H]43)ccc(Cl)c12 [Compound 101, N—((S)-1-(3-(4-chloro-1-methyl-3-(2-(methylamino)acetamido)-1H-indazol-7-yl)-6-(3-hydroxy-3-methylbut-1-yn-1-yl)pyridin-2-yl)-2-(3,5-difluorophenyl)ethyl)-2-((3bS,4aR)-3-(difluoromethyl)-5,5-difluoro-3b,4,4a,5-tetrahydro-1H-cyclopropa[3,4]cyclopenta[1,2-c]pyrazol-1-yl)acetamide]	6.53	95	95
CC(C)(O)C#Cc1ccc(-c2ccc3nnc(N)n3c2)c([C@H](Cc2cc(F)cc(F)c2)NC(=O)Cn2nc(C(F)F)c3c2C(F)(F)[C@@H]2C[C@H]32)n1 [Compound 105E, N—((S)-1-(3-(3-amino-[1,2,4]triazolo[4,3-a]pyridin-6-yl)-6-(3-hydroxy-3-methylbut-1-yn-1-yl)pyridin-2-yl)-2-(3,5-difluorophenyl)ethyl)-2-((3b-S,4aR)-3-(difluoromethyl)-5,5-difluoro-3b,4,4a,5-tetrahydro-1H-cyclopropa[3,4]cyclopenta[1,2-c]pyrazol-1-yl)acetamide]	31.5	–	74
Cc1c(-c2ccc(C#CC(C)(C)O)nc2[C@H](Cc2cc(F)cc(F)c2)NC(=O)Cn2nc(C(F)F)c3c2C(F)(F)[C@@H]2C[C@H]32)ccc2n[nH]c(=O)n12 [Compound 38, 2-((3b-S,4aR)-3-(difluoromethyl)-5,5-difluoro-3b,4,4a,5-tetrahydro-1H-cyclopropa[3,4]cyclopenta[1,2-c]pyrazol-1-yl)-N—((S)-2-(3,5-difluorophenyl)-1-(6-(3-hydroxy-3-methylbut-1-yn-1-yl)-3-(5-methyl-3-oxo-2,3-dihydro-[1,2,4]triazolo[4,3-a]pyridin-6-yl)pyridin-2-yl)ethyl)acetamide]	13.5	96	96
Cn1nc(NS(C)(=O)=O)c2c(Cl)ccc(-c3ccc(C#CCOCCO)nc3[C@H](Cc3cc(F)cc(F)c3)NC(=O)Cn3nc(C(F)(F)F)c4c3C(F)(F)[C@@H]3C[C@H]43)c21 [Compound 153, N—((S)-1-(3-(4-chloro-1-methyl-3-(methylsulfonamido)-1H-indazol-7-yl)-6-(3-(2-hydroxyethoxy)prop-1-yn-1-yl)pyridin-2-yl)-2-(3,5-difluorophenyl)ethyl)-2-((3b-S,4aR)-5,5-difluoro-3-(trifluoromethyl)-3b,4,4a,5-tetrahydro-1H-cyclopropa[3,4]cyclopenta[1,2-c]pyrazol-1-yl)acetamide]	18.6	98	98
Cc1c(CCO)c(C2CC2)nn1CC(=O)N[C@@H](Cc1cc(F)cc(F)c1)c1nc(C#CC(C)(C)O)ccc1-c1ccc(Cl)c2c(NS(C)(=O)=O)nn(C)c12 [Compound 167, (S)—N-(1-(3-(4 chloro-1-methyl-3-(methylsulfonamido)-1H-indazol-7-yl)-6-(3-hydroxy-3-methylbut-1-yn-1-yl)pyridin-2-yl)-2-(3,5-difluorophenyl)ethyl)-2-(3-cyclopropyl-4-(2-hydroxyethyl)-5-methyl-1H-pyrazol-1-yl)acetamide]	34.1	93	93
Cn1nc(NS(C)(=O)=O)c2cccc(-c3ccc(C#CC(C)(C)O)nc3[C@H](Cc3cc(F)cc(F)c3)NC(=O)Cn3nc(C(F)F)c4c3C3CC3CC4)c21 (stereo partly drawn) [Compound 43, 2-(3-(difluoromethyl)-5,5a,6,6a-tetrahydrocyclopropa[g]indazol-1(4H)-yl)-N—((S)-2-(3,5-difluorophenyl)-1-(6-(3-hydroxy-3-methylbut-1-yn-1-yl)-3-(1-methyl-3-(methylsulfonamido)-1H-indazol-7-yl)pyridin-2-yl)ethyl)acetamide]	15.4	100	100
CN1CCN(C(=O)Nc2nn(C)c3c(-c4ccc(C#CC(C)(C)O)nc4[C@H](Cc4cc(F)cc(F)c4)NC(=O)Cn4nc(C(F)(F)F)c5c4C(F)(F)[C@@H]4C[C@H]54)cccc23)CC1 [Compound 51, N-(7-(2-((S)-1-(2-((3bS,4aR)-5,5-difluoro-3-(trifluoromethyl)-3b,4,4a,5-tetrahydro-1H-cyclopropa[3,4]cyclopenta[1,2-c]pyrazol-1-yl)acetamido)-2-(3,5-difluorophenyl)ethyl)-6-(3-hydroxy-3-methylbut-1-yn-1-yl)pyridin-3-yl)-1-methyl-1H-indazol-3-yl)-4-methylpiperazine-1-carboxamide]	11.1	95	95
Cn1nc(NS(C)(=O)=O)c2c(Cl)ccc(-c3ccc(C#CC(C)(C)O)nc3[C@H](Cc3cc(F)cc(F)c3)NC(=O)Cc3noc4ccccc34)c21 [Compound 198, (S)-2-(benzo[d]isoxazol-3-yl)-N-(1-(3-(4 chloro-1-methyl-3-(methylsulfonamido)-1H-indazol-7-yl)-6-(3-hydroxy-3-methylbut-1-yn-1-yl)pyridin-2-yl)-2-(3,5-difluorophenyl)ethyl)acetamide]	23.7	64	98
